This is an account of results in patent US20230391772A1, “METHODS AND COMPOSITIONS FOR TARGETED PROTEIN DEGRADATION” (Ranok Therapeutics (Hangzhou) Co. Ltd., priority 2020, published 2023).

One assay deals with T1, HSP90a protein (Homo sapiens, UniProt P07900).
T1 construct: purchased BPS Bioscience 50298
In words: HSP90α-binding fluorescent polarization (FP) assay, BODIPY-labeled RNK04010 probe. As to conditions: FP competition with RNK04010 (BODIPY-labeled), 5 nM, 300 min at 25° C. A digest of the protocol:
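Polarization signal was read after equilibration at 25° C, for 120 min with FITC-geldanamycin or 300 min with the BODIPY-tagged RNK04010 probe, each at 5 nM final. Compounds spanned 20 μM down to 5.2 nM in 2.5-fold dilutions against the HSP90a N-terminal domain.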

Assay [1] concerns MIA PaCa-2 human pancreatic carcinoma. In words: MIA PaCa-2 CCK-8 proliferation assay. Type of assay: cell-based. As to conditions: Homo sapiens, MIA PaCa-2, 72 h, MIA PaCa-2 cells. A digest of the protocol: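 Three KRAS(G12C) lines are used, MIA PaCa-2 at two mutant copies and the NSCLC lines NCI-H358 and NCI-H23 at one. Each compound is titrated 3-fold from 20 μM to 1.02 nM, and proliferation is scored by CCK-8.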
On the technique in general: Tetrazolium dyes change colour on reduction, which living cells bring about.

The target in assay [2] is T2, KRAS(G12C) (Homo sapiens, UniProt P01116, G12C). In words: KRAS(G12C)/SOS1 homogeneous time-resolved fluorescence (HTRF) assay. The arrangement: purchased Cisbio 63ADK000CB16PEG. As to conditions: absence of GTP, 4° C. for 3 hr, read-out: KRAS (G12C) binding. In short, it runs like this:
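HTRF kit measuring compound-induced block of KRAS(G12C)-SOS1 interaction without GTP. Compounds tested as 3-fold serial dilutions down to 1.02 nM, incubated with reaction components 3 h at 4 °C in sealed plates before fluorescence read.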
In general terms: TR-FRET usually uses a lanthanide donor and a delayed reading to cut background.

Assay [3] deals with T2, KRAS(G12C). In words: KRAS(G12C) Western blot protein degradation assay in LU65A cells. It counts as cell-based. The arrangement: LU65A human lung cancer cell line, which expresses KRAS(G12C); host or cells: LU65A. The note with it: 6 hr. A digest of the protocol:
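Cells treated with compound at various concentrations at 37 °C for 48 hr (MIA PaCa-2) or 6 hr (LU65A), then lysed in RIPA. Protein-normalized lysates immunoblotted for KRAS with β-actin, fluorescence quantified; DC50 is the concentration giving 50% of maximal KRAS degradation.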

T2 sequence (P01116 1-188 isoform P01116-2 G12C): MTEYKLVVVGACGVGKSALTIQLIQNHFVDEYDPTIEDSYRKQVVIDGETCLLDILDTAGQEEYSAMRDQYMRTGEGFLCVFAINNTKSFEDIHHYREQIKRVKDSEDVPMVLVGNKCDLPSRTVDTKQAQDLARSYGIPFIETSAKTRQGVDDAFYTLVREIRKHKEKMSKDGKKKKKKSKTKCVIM

The term EC50 denotes the concentration at which the effect is half-maximal. Read a low EC50 as a more potent agent. As usually defined, the DC50 is the midpoint of the concentration-degradation curve. `C=CC(=O)N1CCN(c2nc(OCCN3CCN(C(=O)C4CCN(Cc5ccc(-n6c(C(=O)NCC(F)(F)F)nnc6-c6cc(C(C)C)c(O)cc6O)cc5)CC4)CC3)nc3c2CCN(c2cccc4cccc(Cl)c24)C3)C[C@@H]1CC#N` [Compound 206, (S)-4-(4-((4-(4-(2-((4-(4-acryloyl-3-(cyanomethyl)piperazin-1-yl)-7-(8-chloronaphthalen-1-yl)-5,6,7,8-tetrahydropyrido[3,4-d]pyrimidin-2-yl)oxy)ethyl)piperazine-1-carbonyl)piperidin-1-yl)methyl)phenyl)-5-(2,4-dihydroxy-5-isopropylphenyl)-N-(2,2,2-trifluoroethyl)-4H-1,2,4-triazole-3-carboxamide, trifluoroacetic acid]: the IC50 was below 0.1 µM at HSP90a protein and 0.1 to 1 µM on KRAS(G12C) [2]. This compound also yielded an EC50 in assay [1] of 0.1 to 1 µM. At KRAS(G12C) [3], the DC50 is above 1 µM.
As for `C=CC(=O)N1CCN(c2nc(OCCN3CCN(Cc4ccc(-n5c(O)nnc5-c5cc(C)c(O)cc5O)cc4)CC3)nc3c2CCN(c2cccc4cccc(Cl)c24)C3)C[C@@H]1CC#N` [Compound 213, (S)-2-(1-acryloyl-4-(7-(8-chloronaphthalen-1-yl)-2-(2-(4-(4-(3-(2,4-dihydroxy-5-methylphenyl)-5-hydroxy-4H-1,2,4-triazol-4-yl)benzyl)piperazin-1-yl)ethoxy)-5,6,7,8-tetrahydropyrido[3,4-d]pyrimidin-4-yl)piperazin-2-yl)acetonitrile], the IC50 at HSP90a protein is below 0.1 µM; at KRAS(G12C) [2], 0.1 to 1 µM. This compound returned an EC50 in assay [1] above 1 µM. The DC50 at KRAS(G12C) [3] is above 1 µM.
With `C=CC(=O)N1CCN(c2nc(OCC3CN(C(=O)C4CCN(Cc5ccc(-n6c(C(=O)NCC(F)(F)F)nnc6-c6cc(C)c(O)cc6O)cc5)CC4)C3)nc3c2CCN(c2cccc4cccc(Cl)c24)C3)C[C@@H]1CC#N` [Compound 219, (S)-4-(4-((4-(3-(((4-(4-acryloyl-3-(cyanomethyl)piperazin-1-yl)-7-(8-chloronaphthalen-1-yl)-5,6,7,8-tetrahydropyrido[3,4-d]pyrimidin-2-yl)oxy)methyl)azetidine-1-carbonyl)piperidin-1-yl)methyl)phenyl)-5-(2,4-dihydroxy-5-methylphenyl)-N-(2,2,2-trifluoroethyl)-4H-1,2,4-triazole-3-carboxamide], the IC50 on HSP90a protein is below 0.1 µM; at KRAS(G12C) [2], 0.1 to 1 µM. The compound also gave an EC50 in assay [1] above 1 µM. In addition, the DC50 on KRAS(G12C) [3] was above 1 µM.
For the compound `C=CC(=O)N1CCN(c2nc(OCC3CN(C(=O)C4CCN(Cc5ccc(-n6c(C(=O)NCC(F)(F)F)nnc6-c6cc(C(C)C)c(O)cc6O)cc5)CC4)C3)nc3c2CCN(c2cccc4cccc(Cl)c24)C3)C[C@@H]1CC#N` [Compound 220, (S)-4-(4-((4-(3-(((4-(4-acryloyl-3-(cyanomethyl)piperazin-1-yl)-7-(8-chloronaphthalen-1-yl)-5,6,7,8-tetrahydropyrido[3,4-d]pyrimidin-2-yl)oxy)methyl)azetidine-1-carbonyl)piperidin-1-yl)methyl)phenyl)-5-(2,4-dihydroxy-5-isopropylphenyl)-N-(2,2,2-trifluoroethyl)-4H-1,2,4-triazole-3-carboxamide], the IC50 is below 0.1 µM on HSP90a protein and 0.1 to 1 µM at KRAS(G12C) [2]. In addition, the EC50 in assay [1] was in the range of 0.1 to 1 µM. In addition, the DC50 on KRAS(G12C) [3] was above 1 µM.
Regarding `C=CC(=O)N1CCN(c2nc(OCCN3CCN(C(=O)C4CCN(Cc5ccc(-n6c(O)nnc6-c6cc(C)c(O)cc6O)cc5)CC4)CC3)nc3c2CCN(c2cccc4cccc(Cl)c24)C3)C[C@@H]1CC#N` [Compound 223, (S)-2-(1-acryloyl-4-(7-(8-chloronaphthalen-1-yl)-2-(2-(4-(1-(4-(3-(2,4-dihydroxy-5-methylphenyl)-5-hydroxy-4H-1,2,4-triazol-4-yl)benzyl)piperidine-4-carbonyl)piperazin-1-yl)ethoxy)-5,6,7,8-tetrahydropyrido[3,4-d]pyrimidin-4-yl)piperazin-2-yl)acetonitrile], the IC50 on HSP90a protein and at KRAS(G12C) [2] was below 0.1 µM each time. The EC50 in assay [1] was above 1 µM. The compound also had a DC50 at KRAS(G12C) [3] of 0.1 to 1 µM.
